One may read the melting point as the temperature, or range, at which the solid turns liquid.

`Cc1nnc2n1-c1ccc(C#CCN3C(=O)C(=O)c4ccccc43)cc1C(c1ccccc1Cl)=NC2`: the melting point fell in the range of 210 to 212 °C.
For `CN1CCC(c2c[nH]c3ccc(NC(=O)c4cccc(Cl)c4)nc23)CC1` the value was 110 to 111 °C; for `CCCC12CCC3=C(CCc4cc(O)ccc43)C1=CCC2=O` (configuration not stated), 149 to 155 °C.
For `O=C(O)COc1cccc(CCc2nc(-c3cccs3)c(-c3cccs3)o2)c1` the value was 106 to 107 °C; for `CS(=O)(=O)Nc1ccc2c(c1)CCN(Cc1ccc3cc(NS(C)(=O)=O)ccc3n1)CC2`, 207 to 210 °C; for `CCOc1ncc(C(C)=O)cc1C(=O)Nc1c(C(N)=O)nn(C2CCN(C(=O)OC(C)(C)C)CC2)c1CC`, 197 to 202 °C.
For `COc1cc(-n2nc(C(F)(F)F)cc2C(F)(F)F)ccc1NC(=O)c1snnc1C` the value was 119 to 121 °C; for `COc1cc(C2Oc3cc(C4Oc5cc(O)cc(O)c5C(=O)C4O)ccc3OC2CO)ccc1O` (configuration not stated), 167 to 180 °C; for `O=C(O)Cn1c(-c2cccc(C(F)(F)F)c2)nc2cccnc21`, 240 to 242 °C.
For `N=C(NO)c1ccc2c(c1)COC(N[C@@H]1CCc3ccccc31)=N2`, the melting point was 206 °C.
In turn, `CC1(C)C2CC(=O)C(CCC(=O)O)C1C2` (configuration not stated) had a melting point of 45 °C.
For `Cc1nc(Br)sc1C(=O)N[C@H](C)[C@](O)(Cn1cncn1)c1ccc(F)cc1F` the value was 155 to 163 °C; for `Cc1nc(C(=O)N(C)C)c2n1-c1ccc(Cl)cc1C(c1ccccc1F)=NC2`, 158 to 160 °C.
For `COC(=O)c1ccccc1NC(=O)CC(C)=O` the value was 79 to 80 °C.
With `CC(C)(C)c1ccc(C(=O)CCCCCC2CCCCC2)cc1NC(=O)CC1c2ccccc2Oc2ccccc21`, the melting point was 134 °C.
In the case of `CC(C)C#Cc1c(C#N)nn(-c2c(Cl)cc(C(F)(F)F)cc2Cl)c1N`, the melting point was 210 to 212 °C.
For `CCS(=O)(=O)Nc1ccc(Cc2ccc(N)cc2)cc1` the value was 108 to 109 °C.
For `CCCc1nc2c(N)nc3cc(-c4ccccc4)ccc3c2n1CCCON=C(C)C` the value was 164 to 165 °C; for `CCCCCCCN(CC(c1ccccc1)c1ccccc1)C(=O)Nc1ccc(F)cc1F`, 76 to 78 °C.
As to `COc1cc2ncnc(Nc3cccc4ccccc34)c2cc1OC`, the melting point was in the range of 271 to 273 °C.
The compound `COC(=O)c1nnc(Cl)cc1NCc1ccc(OC)c(Cl)c1` showed a melting point of 162 to 163 °C.
For `Nc1cccc2c1CNC2=O` the value was 196 to 197 °C; for `O=C1Cc2cc3c(CCC4CCN(Cc5ccc(Br)cc5)CC4)noc3cc2N1`, 177 to 178 °C; for `CCOC(=O)C(=O)Nc1ccc(NC(=O)C(=O)OCC)c(C#N)c1`, 140 to 141 °C.
For `c1coc(CNCc2ccc(-c3cc4ncnc(Nc5ccc6[nH]ccc6c5)c4s3)cc2)c1` the value was 125 to 134 °C; for `CCCOc1c2cc(F)c(F)cc2nc2c1c(C)nn2-c1ccccn1`, 162 to 163 °C; for `CON(C)C(=O)c1cc(Br)cc([N+](=O)[O-])c1N`, 129 °C.
For `O=C(Nc1ccc(CCc2nnn[nH]2)cc1)C(F)(F)C(F)(F)C(F)(F)F` the value was 161 to 162 °C; for `CCOC(=O)c1ccc(OCC#Cc2ccccc2)c(OC)c1`, 62 to 65 °C; for `COC(=O)c1cc(F)c2ncc(C(=O)NCc3ccc(Cl)cc3)c(O)c2c1`, 288 to 290 °C.
With `CC(C)(O)CCNC(=O)c1nn(C2CCCCO2)cc1NC(=O)c1ccccn1` (configuration not stated), the melting point lay in the range of 138 to 139 °C.
For `O=C(O)C1=C(c2ccccc2)c2cc(Br)ccc2CO1` the value was 205 to 206 °C.
In turn, `COc1ccc(Cl)cc1CCCC(=O)O` had a melting point of 79 to 81 °C.
For `COC(=O)Cc1coc2cc(C(=O)NC(C(=O)NCc3ccccc3)c3ccccc3)ccc12` (configuration not stated) the value was 129 to 131 °C.
`CCCCC(=O)Nc1c(C)c(C)c2c(c1C)C(c1ccc(C(C)C)cc1)C(C)(C)O2` (configuration not stated) yielded a melting point of 106 to 107 °C.
As for `COCCOc1ccc(C#CC2(O)CN3CCC2CC3)cc1` (configuration not stated), the melting point lay within 148 to 149 °C.
`CCOC(=O)C1=C(C)NC(C=O)=C(C(=O)OCC)C1c1ccccc1OC` (configuration not stated) yielded a melting point of 111 to 112 °C.
For `CCn1cc(C(=O)O)c(=O)c2c1CCCC2=O` the value was 212 to 214 °C.
The compound `COC(=O)c1ccc2c(ccn2C)c1` registered a melting point of 108 to 110 °C.
As for `COc1ccc2c(c1)NC(C)(C)C=C2C`, the melting point was in the range of 67 to 69 °C.
For `N#Cc1ccc(OCCCc2cc3c(cc2OCc2ccccc2)CC(CCc2ccccc2)O3)cc1` (configuration not stated) the value was 154 to 157 °C; for `COc1cc(OC)c(CSC(C)(C)CC(=O)O)c(OC)c1`, 103 to 105 °C.
For `c1ccc(-c2ncc(N3CCCC3CCCCOC3CCCCO3)nc2-c2ccccc2)cc1` (configuration not stated) the value was 94 to 96 °C; for `CC1(C)Oc2ccc(C#N)cc2C(Sc2ccccn2)C1O` (configuration not stated), 101 to 103 °C; for `CCOC(=O)c1ccc(-c2ccc(OCCCN)c(-c3ccc4c(c3)C(C)(C)CCC4(C)C)c2)cc1`, 155 °C.
For `C=CCN(CC=C)c1nc(NC2CC(C)(C)NC(C)(C)C2)nc(NC(C)(C)CC(C)(C)C)n1` the value was 180 °C.
Compound `O=C1N(Cc2ccc(C(F)(F)F)nc2)c2ccccc2C12COc1cc3c(cc12)OCCO3` (configuration not stated) displayed a melting point of 204 to 207 °C.
For `CN(C)CCOc1ccc(C2(c3ccccc3)OCCC2c2ccccc2)cc1` (configuration not stated) the value was 83 to 85 °C; for `COc1ccc(Nc2nccc(-c3ccc(Cl)nc3)n2)cn1`, 203 to 205 °C.
Consider `CC(=O)N[C@@H](C)COc1ccc2nc(-c3cc(F)c(OCC4CC4)cc3F)oc2c1F`, for which the melting point worked out at 153 °C.
For `COc1ccc(C=O)c(OC)c1C` the value was 51 to 52 °C.
For `Cc1cn(C2CCN(c3c(F)c(C)c4c(=O)c(C(=O)O)cn(C5CC5)c4c3F)C2)nn1` (configuration not stated) the value was 232 to 234 °C; for `c1ccc2c(c1)NCCc1nncn1-2`, 162 to 165 °C.
For `O=C(NCC(=O)c1cccs1)c1ccc(Cl)cc1` the value was 157 to 159 °C; for `Cc1c(C(=O)N(C)c2ccccc2)nc2n1CCc1ccccc1C2OC1CCN(C)CC1` (configuration not stated), 75 °C.
As for `CC(C)(C(=O)O)c1ccc(OC(F)F)cc1`, the melting point was in the range of 68.5 to 69.5 °C.
For `CC(C)(C)c1cc(C(=O)OCCC(=O)Oc2ccc(Cl)c(N)c2)cc(C(C)(C)C)c1O` the value was 122 to 124 °C.
For `O=C(Nc1ccc2ccc(Cl)nc2n1)c1cccc(F)c1` the value was 202 °C; for `COc1cc(Nc2c(C#N)cnc3cc(Br)ccc23)c(Cl)cc1C`, 215 to 217 °C.
Take `COCCC(=O)c1cc(C(=O)OC)c(N)cc1C(F)(F)F`: the melting point lay in the range of 89 to 91 °C.
For `CN(C)c1cnn(C)c(=O)c1-c1ccccc1C=NO` the value was 202 to 203 °C.
For `CCCCc1nn(-c2cc(NC(=O)CC)ccc2Cl)c(=O)n1Cc1ccc(-c2ccccc2S(=O)(=O)NC(=O)OC(C)(C)C)cc1F` the value was 137 to 140 °C; for `NCCNc1cc(-n2cccn2)nc(-c2ccco2)n1`, 104 to 105 °C.
In turn, `CN(Cc1cc2c(=O)c(C(=O)NCc3ccc(Cl)cc3)cn(C)c2o1)CC(O)c1cc2ccccc2o1` (configuration not stated) yielded a melting point of 176 to 179 °C.
For `C1=C(/C=C/c2ccccc2)CCN(Cc2c[nH]c3ncccc23)C1` the value was 210 to 212 °C; for `CC1(C)C(=O)Oc2ccc3ccc(C(C#N)n4cncn4)cc3c21` (configuration not stated), 196 to 198 °C.
Turning to `O=CC=Cc1cn(Cc2cccc([N+](=O)[O-])c2)nn1`, the melting point lay within 136 to 140 °C.
For `COc1cccc([C@H](O)C[C@@H]2CCCN2C)c1` (relative stereo) the value was 79 to 82 °C; for `CCOC(=O)NN1CCc2ccccc2C(Oc2ccc(C(F)(F)F)cc2)C1` (configuration not stated), 156 to 157 °C.
For `CCCCc1oc2ccccc2c1C(OC)c1cc(I)c(OCCN(CC)CC)c(I)c1` (configuration not stated) the value was 96 to 98 °C; for `CCCc1nc2c(N)nc(C)c(C)c2n1CCCC(=O)N1CCOCC1`, 164 to 165 °C.
For `COC(=O)c1cc(C(=O)c2c(C)c(NC(=O)c3cccc(OC(C)=O)c3)c3ccccn23)ccc1N` the value was 210 °C; for `CC1(CCC#N)N=C(c2ccc(Cl)cc2)OC1=O` (configuration not stated), 97 to 98 °C; for `CC(C)c1cc(C(C)C)cc(N(Cc2cccc(NC(=N)c3cccs3)c2)C(=O)CCc2cc(C(C)C)c(O)c(C(C)C)c2)c1`, 144 to 145 °C.
Regarding `CCS(=O)(=O)Nc1cc(Cc2c[nH]cn2)ccc1Cl`, the melting point was 159 to 160 °C.
For `Cc1ccc(NC(=O)c2cc(C#N)cc(C)n2)nc1` the value was 196 °C; for `CC(C(=O)O)c1cccc(NC(=O)NCC(=O)N2[C@@H](c3ccccc3F)SC[C@H]2C(=O)OC(C)(C)C)c1` (some centres not stated), 126 °C.
For `COC(=O)[C@H](Cc1ccc(CC(=O)O)cc1)NC(=O)OC(C)(C)C` the value was 141 to 143 °C.
Compound `COc1cc2c(cc1OC)N(C(=O)OCc1ccccc1)C(C)C(=CN)C2=O` (configuration not stated) displayed a melting point of 143 to 150 °C.
In the case of `Cc1cc(NC2=NCCN2CCNC(=O)Nc2ccc(C(=O)O)cc2)nc(C)n1`, the melting point stood at 160 °C.
Regarding `COC(=O)/C=C/C=C(\c1ccc(OC)cc1)c1cccnc1`, the melting point fell in the range of 75 to 76 °C.
For `CCOC(=O)C1=C(COCCN)NC(C)=C(C(=O)OC)C1c1cccc(C(F)(F)F)c1Cl` (configuration not stated) the value was 122 °C; for `O=Cc1ccc(OCCN2Cc3ccccc3C2=O)cc1`, 134 to 135 °C.
For `O=c1occ(CSc2ccc(F)cc2)o1` the value was 57 to 59 °C; for `CC(=O)c1c(-c2ccc(F)cc2)ncn1C1CC(C)(C)NC(C)(C)C1`, 134 to 136 °C; for `Cc1sc(-c2ccccc2)nc1COc1ccc(CCC[C@@H](O)C(=O)O)cc1`, 117 to 118 °C.
For `O=C1c2ccccc2S(=O)(=O)N1C1CCN(CC2COc3ccccc3O2)CC1` (configuration not stated) the value was 224 to 230 °C.
